# Measurements from ChEMBL document CHEMBL1201862, “PubChem BioAssay data set” (2004).
#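 Method: 48-hour compound exposure of cells in 96-well plates, five concentrations, linear interpolation of endpoints. The concentration for 50% growth inhibition is given as GI50.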 The source made the active and inactive calls. No stated cut-off is given here; in the data, active = GI50 up to about 1.1 µM and inactive = higher.
# Experiments:
# Test in all cases: NCI anticancer screen, dose series, 48 h
# SN12C = test system: SN12C
# NCI/ADR-RES = test system: NCI/ADR-RES
# SF-295 = test system: SF-295
# SF-539 = test system: SF-539
# MOLT-4 = test system: MOLT-4
# NCI-H460 = test system: NCI-H460
# UO-31 = test system: UO-31
# SK-OV-3 = test system: SK-OV-3
# RPMI-8226 = test system: RPMI-8226
# EKVX = test system: EKVX
# COLO 205 = test system: COLO 205
# NCI-H23 = test system: NCI-H23
# MDA-MB-435 = test system: MDA-MB-435
# HOP-92 = test system: HOP-92
# CAKI-1 = test system: CAKI-1
# CCRF-CEM = test system: CCRF-CEM
# LOX IMVI = test system: LOX IMVI
# IGROV-1 = test system: IGROV-1
# OVCAR-5 = test system: OVCAR-5
# KM12 = test system: KM12
# A549 = test system: A549
# SK-MEL-2 = test system: SK-MEL-2
# MCF7 = test system: MCF7
# NCI-H522 = test system: NCI-H522
# M14 = test system: M14
# SR = test system: SR
# OVCAR-3 = test system: OVCAR-3
# SNB-19 = test system: SNB-19
# OVCAR-4 = test system: OVCAR-4
# RXF 393 = test system: RXF 393
# K562 = test system: K562
# Hs-578T = test system: Hs-578T
# UACC-62 = test system: UACC-62
# HT-29 = test system: HT-29
# MDA-MB-231 = test system: MDA-MB-231
# A498 = test system: A498
# U-251 = test system: U-251
# HOP-62 = test system: HOP-62
# HL-60 = test system: HL-60
# T47D = test system: T47D
# ACHN = test system: ACHN
# HCT-15 = test system: HCT-15
# NCI-H226 = test system: NCI-H226
# DU-145 = test system: DU-145
# HCT-116 = test system: HCT-116
# Malme-3M = test system: Malme-3M
# UACC-257 = test system: UACC-257
# TK-10 = test system: TK-10
# SNB-75 = test system: SNB-75
# PC-3 = test system: PC-3
# SF-268 = test system: SF-268
# SK-MEL-5 = test system: SK-MEL-5
# MDA-N = test system: MDA-N
# SK-MEL-28 = test system: SK-MEL-28
# BT-549 = test system: BT-549
# SW-620 = test system: SW-620
# OVCAR-8 = test system: OVCAR-8
# HCC 2998 = test system: HCC 2998
# 786-0 = test system: 786-0
smiles,measurement,setting,value
CC(C)CSCC1OC(n2cnc3c(N)nccc32)C(O)C1O (stereo not drawn),GI50,SN12C,> 100 µM (inactive)
same,GI50,NCI/ADR-RES,> 100 µM (inactive)
same,GI50,SF-295,> 100 µM (inactive)
same,GI50,SF-539,> 100 µM (inactive)
same,GI50,MOLT-4,> 87.5 µM (inactive)
same,GI50,NCI-H460,> 100 µM (inactive)
same,GI50,UO-31,> 100 µM (inactive)
same,GI50,SK-OV-3,> 100 µM (inactive)
same,GI50,RPMI-8226,> 67 µM (inactive)
same,GI50,EKVX,89.5 µM (inactive)
same,GI50,COLO 205,> 86.1 µM (inactive)
same,GI50,NCI-H23,> 100 µM (inactive)
same,GI50,MDA-MB-435,> 100 µM (inactive)
same,GI50,HOP-92,> 72.9 µM (inactive)
same,GI50,CAKI-1,> 100 µM (inactive)
same,GI50,CCRF-CEM,> 100 µM (inactive)
same,GI50,LOX IMVI,> 100 µM (inactive)
same,GI50,IGROV-1,> 100 µM (inactive)
same,GI50,OVCAR-5,> 100 µM (inactive)
same,GI50,KM12,> 100 µM (inactive)
same,GI50,A549,> 100 µM (inactive)
same,GI50,SK-MEL-2,> 100 µM (inactive)
same,GI50,MCF7,> 100 µM (inactive)
same,GI50,NCI-H522,45.8 µM (inactive)
same,GI50,M14,> 100 µM (inactive)
same,GI50,SR,> 100 µM (inactive)
same,GI50,OVCAR-3,> 100 µM (inactive)
same,GI50,SNB-19,> 100 µM (inactive)
same,GI50,OVCAR-4,> 100 µM (inactive)
same,GI50,RXF 393,> 52 µM (inactive)
same,GI50,K562,> 75 µM (inactive)
same,GI50,Hs-578T,> 72.1 µM (inactive)
same,GI50,UACC-62,> 100 µM (inactive)
same,GI50,HT-29,> 100 µM (inactive)
same,GI50,MDA-MB-231,> 100 µM (inactive)
same,GI50,A498,> 100 µM (inactive)
same,GI50,U-251,> 100 µM (inactive)
same,GI50,HOP-62,> 100 µM (inactive)
same,GI50,HL-60,> 100 µM (inactive)
same,GI50,T47D,> 100 µM (inactive)
same,GI50,ACHN,> 100 µM (inactive)
same,GI50,HCT-15,> 100 µM
same,GI50,NCI-H226,> 57.1 µM (inactive)
same,GI50,DU-145,> 100 µM (inactive)
same,GI50,HCT-116,> 100 µM (inactive)
same,GI50,Malme-3M,> 100 µM (inactive)
same,GI50,UACC-257,> 85.3 µM (inactive)
same,GI50,TK-10,> 100 µM (inactive)
same,GI50,SNB-75,> 100 µM (inactive)
same,GI50,PC-3,> 100 µM (inactive)
same,GI50,SF-268,> 100 µM (inactive)
same,GI50,SK-MEL-5,43.8 µM (inactive)
same,GI50,MDA-N,> 100 µM (inactive)
same,GI50,SK-MEL-28,> 100 µM (inactive)
same,GI50,BT-549,> 100 µM (inactive)
same,GI50,SW-620,> 100 µM (inactive)
same,GI50,OVCAR-8,> 100 µM (inactive)
same,GI50,HCC 2998,27.9 µM (inactive)
same,GI50,786-0,> 100 µM (inactive)
COC(=O)CC1(O)C=CC(=O)C=C1 [JACARANONE],GI50,SN12C,9.31 µM (inactive)
same,GI50,NCI/ADR-RES,3.63 µM (inactive)
same,GI50,SF-295,5.13 µM (inactive)
same,GI50,SF-539,3.53 µM (inactive)
same,GI50,MOLT-4,1.05 µM (active)
same,GI50,NCI-H460,2.2 µM (inactive)
same,GI50,UO-31,2.96 µM (inactive)
same,GI50,SK-OV-3,14.1 µM (inactive)
same,GI50,RPMI-8226,5.45 µM (inactive)
same,GI50,EKVX,4.02 µM (inactive)
same,GI50,COLO 205,4.68 µM (inactive)
same,GI50,NCI-H23,2.96 µM (inactive)
same,GI50,MDA-MB-435,6.47 µM (inactive)
same,GI50,HOP-92,8.07 µM (inactive)
same,GI50,CAKI-1,3.83 µM (inactive)
same,GI50,CCRF-CEM,1.99 µM (inactive)
same,GI50,LOX IMVI,2.51 µM (inactive)
same,GI50,IGROV-1,2.02 µM (inactive)
same,GI50,OVCAR-5,8.99 µM (inactive)
same,GI50,KM12,1.74 µM (inactive)
same,GI50,A549,8.67 µM (inactive)
same,GI50,SK-MEL-2,4.63 µM (inactive)
same,GI50,MCF7,2.97 µM (inactive)
same,GI50,NCI-H522,1.39 µM (inactive)
same,GI50,M14,4.18 µM (inactive)
same,GI50,SR,2.47 µM (inactive)
same,GI50,OVCAR-3,3.91 µM (inactive)
same,GI50,SNB-19,5.48 µM (inactive)
same,GI50,OVCAR-4,3.82 µM (inactive)
same,GI50,RXF 393,3.36 µM (inactive)
same,GI50,K562,3.76 µM (inactive)
same,GI50,Hs-578T,8.55 µM (inactive)
same,GI50,UACC-62,2.13 µM (inactive)
same,GI50,HT-29,6.24 µM (inactive)
same,GI50,MDA-MB-231,2.66 µM (inactive)
same,GI50,A498,7.16 µM (inactive)
same,GI50,U-251,3.52 µM (inactive)
same,GI50,HOP-62,6.76 µM (inactive)
same,GI50,HL-60,2.59 µM (inactive)
same,GI50,T47D,5.42 µM (inactive)
same,GI50,ACHN,2.99 µM (inactive)
same,GI50,HCT-15,3.01 µM
same,GI50,NCI-H226,8.61 µM (inactive)
same,GI50,DU-145,5.06 µM (inactive)
same,GI50,HCT-116,9.77 µM (inactive)
same,GI50,Malme-3M,2.81 µM (inactive)
same,GI50,UACC-257,2.65 µM (inactive)
same,GI50,TK-10,4.81 µM (inactive)
same,GI50,SNB-75,5.43 µM (inactive)
same,GI50,PC-3,2.57 µM (inactive)
same,GI50,SF-268,3.18 µM (inactive)
same,GI50,SK-MEL-5,3.29 µM (inactive)
same,GI50,MDA-N,6.35 µM (inactive)
same,GI50,SK-MEL-28,2.38 µM (inactive)
same,GI50,BT-549,5.02 µM (inactive)
same,GI50,SW-620,4.76 µM (inactive)
same,GI50,OVCAR-8,3.4 µM (inactive)
same,GI50,HCC 2998,15.3 µM (inactive)
same,GI50,786-0,2.88 µM (inactive)
